Converted amounts (≈) assume the structure as drawn.
How the values were obtained:
[1] = system: C. neoformans; conditions: RPMI1640 broth, 35° C., 72 hours, visual reading; expressed as a range value
Description: An in vitro antifungal susceptibility test was performed in accordance with the US Clinical and Laboratory Standards Institute (CLSI) guidelines to measure the degree of antifungal activity of the compounds synthesized in the Preparation Examples against opportunistic pathogenic fungi. […] The MIC value (μg/ ? ) is expressed as a range value. Specifically, Candida species and Cryptococcus neoformans were incubated in a Sabouraud dextrose agar (SDA) (Sigma-Aldrich) solid medium for 24 and 48 hours, respectively to obtain single colonies. The obtained single colonies were suspended in 0.85% physiological saline to prepare fungal cell suspension (1 to 5×10^6 cells/ ? ). Fungal cells 2000-fold diluted in RPMI1640 broth (Sigma-Aldrich) were seeded on 96-well plates (5×10^2 to 2.5×10^3 cells/ ? , 195 ? /well). Serial two-fold dilutions (128, 64, 32, 16, 8, 4, 2, 1, and 0.5 μg/ ? ) of compounds were prepared by diluting the compounds synthesized according to the above preparation examples. Then, 5 ? from each dilution was added to the well of the 96-well plate containing fungal cell suspension to give a final suspension of 200 ? per well. […] As a positive control, amphotericin B (AMB), which is highly toxic to the human body but is known as a representative antifungal agent, was used.

[2] = system: C. albicans; conditions: RPMI1640 broth, 35° C., 48 hours, visual reading; expressed as a range value
[3] = system: C. glabrata; conditions: RPMI1640 broth, 35° C., 48 hours, visual reading; expressed as a range value
[4] = system: A. fumigatus; conditions: visual reading; expressed as a range value
[5] = system: B. cereus (+); assay: Antibacterial MIC test (CLSI); assay type: cell-based; conditions: for MIC B. cereus (+): MHB liquid medium, 37° C., 24 hours
Description: (§1) The MIC test was conducted in accordance CLSI guidelines. […] As a positive control, Nofloxacin and Vancomycin were used.

[6] = system: B. coagulans (+); assay: Antibacterial MIC test (CLSI); assay type: cell-based; conditions: for MIC B. coagulans (+): MHB liquid medium, 37° C., 24 hours
Description: as §1

[7] = system: B. subtilis (+); assay: Antibacterial MIC test (CLSI); assay type: cell-based; conditions: for MIC B. subtilis (+): MHB liquid medium, 37° C., 24 hours
Description: as §1

[8] = system: E. coli (−); assay: Antibacterial MIC test (CLSI); assay type: cell-based; conditions: for MIC E. coli (−): MHB liquid medium, 37° C., 24 hours
Description: as §1

[9] = system: L. monocytogenes (+); assay: Antibacterial MIC test (CLSI); assay type: cell-based; conditions: for MIC L. monocytogenes (+): MHB liquid medium, 37° C., 24 hours
Description: as §1

[10] = system: M. luteus (+); assay: Antibacterial MIC test (CLSI); assay type: cell-based; conditions: for MIC M. luteus (+): MHB liquid medium, 37° C., 24 hours
Description: as §1

[11] = system: P. acnes (+); assay: Antibacterial MIC test (CLSI); assay type: cell-based; conditions: for MIC P. acnes (+): MHB liquid medium, 37° C., 24 hours
Description: as §1

[12] = system: S. aureus enterica (−); assay: Antibacterial MIC test (CLSI); assay type: cell-based; conditions: for MIC S. aureus enterica (−): MHB liquid medium, 37° C., 24 hours
Description: as §1

[13] = system: S. aureus (+); conditions: MHB liquid medium, 37° C., 24 hours
Description: (§2) The antibacterial activities against Gram-positive bacteria, Gram-negative bacteria or multi-drug resistant bacteria were evaluated for the compounds of the present invention. The MIC test was conducted in accordance CLSI guidelines. E. coli(−), P. aeruginosa(−), and S. enterica(−) were used as Gram-negative bacteria, B. cereus(+), B. subtilis(+), B. coagulans(+), L. monocytogenes(+), M. luteus(+), P. acnes(+), S. epidermidis(+), and S. aureus(+) were used as Gram-positive bacteria. Methicillin-resistant Staphylococcus aureus (MRSA) was used as multi-drug resistant bacteria. The bacterial cells were incubated until the OD600 of the single colonies reached 0.1. […] Subsequently, bacterial cells were incubated at 37° C. for 24 hours, and then the MICs (μg/ ? ) were determined by visual reading and optical density detection at 600 nm (OD600). As a positive control, Nofloxacin and Vancomycin were used.

[14] = system: S. epidermidis (+); conditions: MHB liquid medium, 37° C., 24 hours
Description: as §2

[15] = system: MRSA; assay: Antibacterial MIC test (CLSI); assay type: cell-based, Methicillin-resistant Staphylococcus aureus; conditions: for MIC MRSA: MHB liquid medium, 37° C., 24 hours
Description: as §1

Compound | MIC (μg/mL) C. neoformans [1] | MIC (μg/mL) C. albicans [2] | MIC (μg/mL) C. glabrata [3] | MIC (μg/mL) A. fumigatus [4] | MIC B. cereus (+) [5] [µg/mL] | MIC B. coagulans (+) [6] [µg/mL] | MIC B. subtilis (+) [7] [µg/mL] | MIC E. coli (−) [8] [µg/mL] | MIC L. monocytogenes (+) [9] [µg/mL] | MIC M. luteus (+) [10] [µg/mL] | MIC P. acnes (+) [11] [µg/mL] | MIC S. aureus enterica (−) [12] [µg/mL] | MIC S. aureus (+) [13] [µg/mL] | MIC S. epidermidis (+) [14] [µg/mL] | MIC MRSA [15] [µg/mL] | also measured
C[C@@H]1[C@H](O)[C@@H](C)/C=C/C=C/C=C/C=C/C=C/C=C/C=C/[C@H](O[C@@H]2O[C@H](C)[C@@H](O)[C@H](N)[C@@H]2O)C[C@@H]2O[C@](O)(C[C@@H](O)C[C@@H](O)[C@H](O)CC[C@@H](O)C[C@@H](O)CC(=O)O[C@H]1C)C[C@H](O)[C@H]2C(=O)O [ABM, amphotericin B, reference compound] | 0.25 µg/mL (≈ 0.271 µM) | 0.25 µg/mL (≈ 0.271 µM) | 0.5 µg/mL (≈ 0.541 µM) | 1 µg/mL (≈ 1.08 µM) | – | – | – | – | – | – | – | – | – | – | – | –
CCCCC(NC)C(=O)Nc1ccc(-c2ccc(Cl)c(Cl)c2)cc1.Cl (racemic) [Compound 35, (R)/(S)-N-(3′,4′-dichloro-[1,1′-biphenyl]-4-yl)-2-(methylamino)hexanamide hydrochloride] | 0.5~4 μg/mL | 0.5~4 μg/mL | 0.5~4 μg/mL | 0.5~4 μg/mL | <4 | <4 | <4 | <4 | >64 | <4 | <4 | 64 | 8 | <4 | <4 | –
CCCCC(N)C(=O)NCc1ccc(-c2ccc(Cl)c(Cl)c2)cc1.Cl (racemic) [Compound 46, (R)/(S)-2-amino-N-((3′,4′-dichloro-[1,1′-biphenyl]-4-yl)methyl)hexanamide hydrochloride] | 0.5~4 μg/mL | 2~8 μg/mL | 2~8 μg/mL | 2~8 μg/mL | 16 | 4 | 8 | 32 | 8 | 8 | 8 | 32 | 8 | 8 | 8 | –
CCCC(NC)C(=O)NCc1ccc(-c2ccc(Cl)c(Cl)c2)cc1.Cl (racemic) [Compound 51, (R)/(S)-N-((3′,4′-dichloro-[1,1′-biphenyl]-4-yl)methyl)-2-(methylamino)pentanamide hydrochloride] | 2~8 μg/mL | 4~16 μg/mL | 4~16 μg/mL | 4~16 μg/mL | 32 | 4 | 16 | >32 | 16 | 16 | 16 | >32 | 16 | 16 | 16 | –
CCCCC(N)C(=O)Nc1ccc(-c2ccc(Cl)c(Cl)c2)cc1.Cl (racemic) [Compound 31, (R)/(S)-2-amino-N-(3′,4′-dichloro-[1,1′-biphenyl]-4-yl)hexanamide hydrochloride] | 0.5~4 μg/mL | 0.5~4 μg/mL | 0.5~4 μg/mL | 0.5~4 μg/mL | <4 | <4 | <4 | <4 | <4 | <4 | <4 | 8 | <4 | <4 | <4 | –
CCn1cc(C(=O)O)c(=O)c2cc(F)c(N3CCNCC3)cc21 [Nofloxacin, reference compound] | – | – | – | – | 1 (≈ 3.13 µM) | <0.125 | <0.125 | <0.125 | <0.125 | <0.125 | <0.125 | <0.125 | – | – | 0.5 (≈ 1.57 µM) | –
CCC(N)C(=O)NCCc1ccc(-c2ccc(OC(F)(F)F)cc2)cc1.Cl (racemic) [Compound 79, (R)/(S)-2-amino-N-(2-(4′-(trifluoromethoxy)-[1,1′-biphenyl]-4-yl)ethyl)butanamide hydrochloride] | 8~32 μg/mL | 8~32 μg/mL | 8~32 μg/mL | 8~32 μg/mL | 64 | <4 | 16 | 16 | 16 | 16 | 16 | 32 | 16 | 8 | 16 | –
CCCC(N)C(=O)Nc1ccc(-c2ccc(Cl)c(Cl)c2)cc1.Cl (racemic) [Compound 30, (R)/(S)-2-amino-N-(3′,4′-dichloro-[1,1′-biphenyl]-4-yl)pentanamide hydrochloride] | 2~8 μg/mL | 4~16 μg/mL | 4~16 μg/mL | 4~16 μg/mL | 32 | 8 | 16 | >32 | 16 | – | 16 | >32 | 16 | 16 | 16 | –
CCCC(NC)C(=O)NCCc1ccc(-c2ccc(OC(F)(F)F)cc2)cc1.Cl (racemic) [Compound 90, (R)/(S)-2-(methylamino)-N-(2-(4′-(trifluoromethoxy)-[1,1′-biphenyl]-4-yl)ethyl)pentanamide hydrochloride] | 4~16 μg/mL | 4~16 μg/mL | 4~16 μg/mL | 4~16 μg/mL | – | – | – | – | – | – | – | – | – | – | – | –
CCCCC(N)C(=O)NCCc1ccc(-c2ccc(Cl)c(Cl)c2)cc1.Cl (racemic) [Compound 75, (R)/(S)-2-amino-N-(2-(3′,4′-dichloro-[1,1′-biphenyl]-4-yl)ethyl)hexanamide hydrochloride] | 0.5~4 μg/mL | 0.5~4 μg/mL | 0.5~4 μg/mL | 0.5~4 μg/mL | 16 | – | 8 | 32 | 8 | 8 | 8 | >32 | 8 | 8 | 8 | –
CCCC(C(=O)NCCc1ccc(-c2ccc(Cl)c(Cl)c2)cc1)N(C)C (racemic) [Compound 92, (R)/(S)-N-(2-(3′,4′-dichloro-[1,1′-biphenyl]-4-yl)ethyl)-2-(dimethylamino)pentanamide] | 4~16 μg/mL | 8~32 μg/mL | 8~32 μg/mL | 8~32 μg/mL | – | – | – | – | – | – | – | – | – | – | – | –
CN[C@H](CC(C)C)C(=O)N[C@H]1C(=O)N[C@@H](CC(N)=O)C(=O)N[C@H]2C(=O)N[C@H]3C(=O)N[C@H](C(=O)N[C@H](C(=O)O)c4cc(O)cc(O)c4-c4cc3ccc4O)[C@H](O)c3ccc(c(Cl)c3)Oc3cc2cc(c3O[C@@H]2O[C@H](CO)[C@@H](O)[C@H](O)[C@H]2O[C@H]2C[C@](C)(N)[C@H](O)[C@H](C)O2)Oc2ccc(cc2Cl)[C@H]1O [Vancomycin, reference compound] | – | – | – | – | – | – | – | – | – | – | – | – | – | – | – | MIC ([5]; Bacillus cereus, 24 h, read-out: MIC B. cereus (+)): 0.5 µg/mL (≈ 0.345 µM); MIC ([6]; Heyndrickxia coagulans, 24 h, read-out: MIC B. coagulans (+)): 0.25 µg/mL (≈ 0.173 µM); MIC ([7]; Bacillus subtilis, 24 h, read-out: MIC B. subtilis (+)): 0.25 µg/mL (≈ 0.173 µM); MIC ([8]; Escherichia coli, 24 h, read-out: MIC E. coli (−)): 64 µg/mL (≈ 44.2 µM); MIC ([9]; Listeria monocytogenes, 24 h, read-out: MIC L. monocytogenes (+)): 0.25 µg/mL (≈ 0.173 µM); MIC ([10]; Micrococcus luteus, 24 h, read-out: MIC M. luteus (+)): 0.25 µg/mL (≈ 0.173 µM); MIC ([11]; Cutibacterium acnes, 24 h, read-out: MIC P. acnes (+)): < 0.125 µg/mL; MIC ([12]; Staphylococcus aureus, 24 h, read-out: MIC S. aureus enterica (−)): > 64 µg/mL; MIC ([15]; Staphylococcus aureus, MRSA, 24 h, read-out: MIC MRSA): 1 µg/mL (≈ 0.69 µM)

From patent US12180139B2, “Method for preparing aminoalkanoic acid derivative containing biphenyl group” (AMTIXBIO CO., LTD., priority 2019, dated 2024)
